{"source": "patent EP0269017B1", "about": "“Therapeutic combination of free-radical scavenger or metabolic inhibitor and biologically active protein” (CETUS ONCOLOGY CORPORATION, priority 1986, dated 1988)", "key": {"Meth-A tumor cells [1]": {"tested_on": "Meth-A tumor cells", "assay": "TNF mutein and aspirin in mice with Meth-A tumor (Example 4)", "method": "Female Balb/c mice were treated by subcutaneous implantation of Meth-A tumor cells as described in Example 1. Five mice per group were employed. Treatment was initiated seven days after the implantation.\nA protocol was employed wherein aspirin or the TNF mutein of Example 1 alone, or aspirin together with the TNF mutein, were administered intravenously. In the combination group, aspirin was administered daily for five days and each dose was followed 1-4 hours later by TNF. PBS was used as a control.\nThe headings are defined in the footnotes of Table I. TABLE V"}, "Meth-A tumor cells [2]": {"tested_on": "Meth-A tumor cells", "assay": "TNF mutein with NDGA, aspirin or both in mice with Meth-A tumor (Example 5)", "details": "no TNF, aspirin 30 mg/kg i.v. and/or NDGA 15.6 mg/kg i.p. every third day 3 times; for △TW: day 14", "method": "Female Balb/c mice were treated by subcutaneous implantation of Meth-A tumor cells as described in Example 1.\nDetails of the protocols are in the footnotes of Table VI. PBS was used as a control. Results were evaluated 14 days after initiation of treatment. The headings are defined in the footnotes of Table I. TABLE VI"}, "Meth-A tumor cells [3]": {"tested_on": "Meth-A tumor cells", "assay": "TNF mutein and BSO in mice with Meth-A tumor (Example 3)", "assay_type": "in vivo, Female Balb/c mice", "details": "BSO 1.25 g/kg alone, i.p. twice daily for ten days", "method": "Female Balb/c mice were implanted subcutaneously with Meth-A tumor cells as described in Example 1. Treatment was initiated seven days after the implantation.\nA protocol was employed wherein BSO or the TNF mutein of Example 1 alone, or BSO together with the TNF mutein, were administered. BSO was administered intraperitonally and TNF intravenously. The BSO was started 24 hours prior to TNF administration twice daily (6-8 hours between doses) for ten days and TNF was given with the second BSO dose every third day for three times. BSO excipient was used as a volume control in the TNF alone groups. PBS was used as a control. The protocol is illustrated below: [formula]\nTable III illustrates the results of this study, with the headings defined in the footnotes to Table II. The numbers in parentheses indicate the results from a repeat of the experiment."}, "[4]": {"details": "Smith et al., cited from earlier work"}, "[5]": {"tested_on": "methylcholanthrene-induced murine fibrosarcoma (Meth-A)", "assay_type": "in vivo, Female Balb/c mice", "details": "uric acid 25 mg/kg alone, i.v. every third day three times", "from_the_text": "Female Balb/c mice (Charles River Breeding Laboratories, Inc., Wilmington, MA) that were all 6-8 weeks old were employed in the in vivo tests. Animals were weight matched at 20 ± 3 g, randomized at five per cage, and ear-notched. All animals were held in quarantine observation for seven days after arrival, maintained in microisolator cages (Lab Products, Inc.), and fed standard laboratory diets and drinking water ad lib.\nA mutein of human TNF-α having the first eight amino acids deleted from the N-terminus was prepared as described In U.S. Patent No. 4,677,064 Issued June 30, 1987 and Wang et al., Science (1985) 228:149-153. Briefly, TNF was induced from HL-60 cells and purified and sequenced. Then an intronless sequence encoding human TNF was prepared by producing enriched mRNA, constructing a cDNA library, selecting a probe and probing the library to recover the sequence. Then an ATG start codon was introduced immediately preceding the GTC sequence encoding N-terminal valine of the mature protein by site-directed mutagenesis. Clones were selected and strands ligated into expression vectors to obtain prokaryotic expression of the mutein. […]\nThe uric acid dose was slightly below the maximum concentration attainable without decreasing animal weight, determined in a preliminary toxicity study, and was given immediately prior to the TNF inoculation. […]"}, "Meth-A tumor cells [6]": {"tested_on": "Meth-A tumor cells", "assay_type": "in vivo, Female Balb/c mice", "details": "uric acid 25 mg/kg alone, i.v. once daily for five days", "method": "(§1) Female Balb/c mice were implanted subcutaneously with Meth-A tumor cells as described in Example 1.\nAn IL-2 mutein, designated des-ala₁-IL2-ser125 (with no alanine at position 1 of the mature IL-2 molecule and a serine at position 125 of the mature IL-2 molecule), was prepared by the method described in U.S. Patent No. 4,518,584, supra, isolated from refractile bodies in accordance with the procedure described in EP-A-0 206 828, published December 30, 1986, and formulated as described in U.S. Patent No. 4,604,377 in sodium dodecyl sulfate.\nTable IX indicates the results obtained when the IL-2 mutein described herein alone, uric acid alone, and various combination injections of the IL-2 mutein and uric acid were administered intravenously to five mice per group (2-3 repeats) beginning seven days after tumor implantation and once daily for five days, with the uric acid being administered immediately prior to (about 10 minutes) the IL-2 administration when both were administered. Final measurements were made on day 14. The excipient control was injected with PBS. The uric acid doses were all 25 mg/kg of mice weight."}, "Meth-A tumor cells [7]": {"tested_on": "Meth-A tumor cells", "assay": "TNF mutein and vitamin C in mice with Meth-A tumor (Example 2)", "assay_type": "in vivo, Female Balb/c mice", "details": "for % Control △BW / Cures (△TW=0, or no visible tumor after 21 days from start of treatment) / Deaths / % Control △TW: i.v. every third day for three injections; for % Control △BW / % Control △TW: day 14", "from_the_text": "as §1"}, "[8]": {"details": "aspirin 30 mg/kg alone, i.v., 14 days after treatment began"}, "[9]": {"details": "Vit.C 7 mg/kg, TNF 125 µg/kg where given"}, "[10]": {"details": "Vit.C 35 mg/kg, TNF 125 µg/kg where given"}, "[11]": {"details": "Vit.C 70 mg/kg, TNF 125 µg/kg where given"}}, "note": "Like-named read-outs stand apart in the source and are kept apart here.", "data": [{"smiles": "CC(=O)Oc1ccccc1C(=O)O", "note": "[Aspirin]", "values": [{"measurement": "Cures", "setting": "Meth-A tumor cells [1]; aspirin 30 mg/kg alone, i.v.", "value": "0/5"}, {"measurement": "Deaths", "setting": "Meth-A tumor cells [1]; aspirin 30 mg/kg alone, i.v.", "value": "0/5"}, {"measurement": "△BW", "setting": "Meth-A tumor cells [1]; [8]", "value": 1.34}, {"measurement": "△TW", "setting": "Meth-A tumor cells [1]; [8]", "value": 66.6}, {"measurement": "toxicity of aspirin alone", "setting": "Meth-A tumor cells [1]; aspirin 30 mg/kg, single dose or once a day for five days", "value": "non-toxic"}, {"measurement": "Cures", "setting": "Meth-A tumor cells [2]", "value": "0/5"}, {"measurement": "Deaths", "setting": "Meth-A tumor cells [2]; NDGA cell adds (1 tumor death d. 14), aspirin + NDGA cell adds (d. 5)", "value": "0/5"}, {"measurement": "△TW", "setting": "Meth-A tumor cells [2]", "value": 60.3}]}, {"smiles": "CCCCS(=N)(=O)CCC(N)C(=O)O", "note": "(stereo not drawn) [BSO, Buthionine Sulphoximine]", "values": [{"measurement": "Cures (no palpable tumor on day 14)", "setting": "Meth-A tumor cells [3]", "value": "0/10"}, {"measurement": "Deaths", "setting": "Meth-A tumor cells [3]", "value": "0/10"}, {"measurement": "△TW", "setting": "Meth-A tumor cells [3]; mean values", "value": 29.8}, {"measurement": "△BW", "setting": "Meth-A tumor cells [3]; mean values of two experiments", "value": 1.19}, {"measurement": "toxicity", "setting": "[4]; 400-800 mg/kg of BSO orally every eight hours, fifteen doses", "value": "toxic"}, {"measurement": "toxicity", "setting": "[4]; fifteen doses of 100 mg/kg/dose of BSO orally every eight hours, Proceedings of AACR, 28 (March 1987), p. 440", "value": "relatively non-toxic"}]}, {"smiles": "CC(Cc1ccc(O)c(O)c1)C(C)Cc1ccc(O)c(O)c1", "note": "(stereo not drawn) [NDGA, nordihydroguaiaretic acid (4,4'-[2,3-dimethyl-1,4-butanediyl]-bis[1,2-benzenediol])]", "values": [{"measurement": "Cures", "setting": "Meth-A tumor cells [2]", "value": "0/5"}, {"measurement": "△TW", "setting": "Meth-A tumor cells [2]", "value": 50.8}]}, {"smiles": "O=c1[nH]c(=O)c2[nH]c(=O)[nH]c2[nH]1", "note": "[Uric acid, uric acid]", "values": [{"measurement": "Cures (△TW=0, or no visible tumor after 21 days from start of treatment)", "setting": "[5]", "value": "0/14"}, {"measurement": "△TW (ratio of mean tumor volume at 14 days to start of treatment)", "setting": "[5]", "value": "51.7 ± 17.7"}, {"measurement": "Cures", "setting": "Meth-A tumor cells [6]", "value": "0/5"}, {"measurement": "△TW", "setting": "Meth-A tumor cells [6]; day 14", "value": 42.3}]}, {"smiles": "O=C1O[C@H]([C@@H](O)CO)C(O)=C1O", "note": "[Vit.C, Ascorbic Acid]", "values": [{"measurement": "% Control △BW", "setting": "Meth-A tumor cells [7]; Vit.C 7 mg/kg, TNF 125 µg/kg immediately after where given", "value": 92, "unit": "%"}, {"measurement": "Cures (△TW=0, or no visible tumor after 21 days from start of treatment)", "setting": "Meth-A tumor cells [7]; [9]", "value": "0/5"}, {"measurement": "Deaths", "setting": "Meth-A tumor cells [7]; [9]", "value": "0/5"}, {"measurement": "% Control △TW", "setting": "Meth-A tumor cells [7]; [9]", "value": 76, "unit": "%"}, {"measurement": "Cures (△TW=0, or no visible tumor after 21 days from start of treatment)", "setting": "Meth-A tumor cells [7]; [10]", "value": "0/5"}, {"measurement": "Deaths", "setting": "Meth-A tumor cells [7]; [10]", "value": "0/5"}, {"measurement": "% Control △BW", "setting": "Meth-A tumor cells [7]; [10]", "value": 100, "unit": "%"}, {"measurement": "% Control △TW", "setting": "Meth-A tumor cells [7]; [10]", "value": 88, "unit": "%"}, {"measurement": "Cures (△TW=0, or no visible tumor after 21 days from start of treatment)", "setting": "Meth-A tumor cells [7]; [11]", "value": "0/5"}, {"measurement": "Deaths", "setting": "Meth-A tumor cells [7]; [11]", "value": "0/5"}, {"measurement": "% Control △BW", "setting": "Meth-A tumor cells [7]; [11]", "value": 96, "unit": "%"}, {"measurement": "% Control △TW", "setting": "Meth-A tumor cells [7]; [11]", "value": 74, "unit": "%"}, {"measurement": "toxicity of vitamin C alone", "setting": "Meth-A tumor cells [7]; at the three doses tested (7, 35, 70 mg/kg)", "value": "non-toxic"}]}]}
